Key:
[1] = target: PKR(wt) (Homo sapiens, UniProt P30613); experiment: Luminescence Biochemical Assay (Kinase Glo Plus), wild type PKR; conditions: without FBP; for activation at 1.54 µM: 1.54 μM compound, read-out: AC50 LUM KGP woFBP % Fold@1.54 μM mean; for AC50: read-out: AC50 LUM KGP woFBP AC50 μM gmean; for Emax: read-out: AC50 LUM KGP woFBP MAX % FOLD mean
Procedure: (§1) In some embodiments, a PKR Activating Compound can have: (1) an AC50 value of less than 0.1 μM (e.g., compounds with AC50 values of “+++” in Table 13), 0.1-1.0 μM (e.g., compounds with AC50 values of “++” in Table 13), or 1.01-40 μM (e.g., compounds with AC50 values of “+” in Table 13); (2) a MAX % Fold of 75%-250%, 250-500%, or 75%-500%; and/or (3) a % Fold@1.54 μM of 75%-250%, 250-500%, or 75%-500%. In some embodiments, a PKR Activating Compound has (1) an AC50 value of less than 1.0 μM; (2) a MAX % Fold of 75%-500%; and/or (3) a % Fold@1.54 μM of 75%-500%.
(§2) The phosphorylation of Adenosine-5′-diphosphate (ADP) by various mutants of PKR was determined by the Kinase Glo Plus Assay (Promega) in the presence or absence of FBP [D-Fructose-1,6-diphosphate; BOC Sciences, CAS: 81028-91-3] as follows. Unless otherwise indicated, all reagents were purchased from Sigma-Aldrich. All reagents were prepared in buffer containing 50 mM Tris-HCl, 100 mM KCl, 5 mM MgCl2, and 0.01% Triton X100, 0.03% BSA, and 1 mM DTT. Enzyme and PEP [Phospho(enol) pyruvic acid] were added at 2× to all wells of an assay-ready plate containing serial dilutions of test compounds or DMSO vehicle. Final enzyme concentrations for PKR(wt), PKR(R510Q), and PKR(G332S) were 0.8 nM, 0.8 nM, and 10 nM respectively. Final PEP concentration was 100 μM. The Enzyme/PEP mixture was incubated with compounds for 30 minutes at RT before the assay was initiated with the addition of 2×ADP [Adenosine-5′-diphosphate] and KinaseGloPlus. Final concentration of ADP was 100 μM. […] For assays containing FBP, that reagent is added at 30 μM upon reaction initiation. Reactions were allowed to progress for 45 minutes at RT until luminescence was recorded by the BMG PHERAstar FS Multilabel Reader. All compounds were tested in triplicate at concentrations ranging from 42.5 μM to 2.2 nM in 0.83% DMSO.
(§3) Luminescence values were converted to % Fold increase by normalizing to the average of the DMSO control and multiplying by 100. Max, min, slope and AC50 were determined by the standard four parameter fit algorithm of ActivityBase XE Runner. Compounds were evaluated with three parameters—AC50, MAX % Fold, and % Fold@1.54 μM (FIG. 1). The AC50 value for a compound is the concentration (μM) corresponding to the midway between the maximum and minimum values of the four parameter logistic curve fit (i.e., at which the % fold increase along the four parameter logistic curve fit is halfway between MAX % Fold and MIN % Fold (% Fold Midpoint)), MAX % Fold is the highest fold increase observed at any concentration of compound, and % Fold@1.54 μM is the fold increase at a compound concentration of 1.54 μM. The parameter % Fold@1.54 μM was selected to capture elements of both the AC50 and MAX % Fold and to provide a ranking based on both potency and effect. The compound concentration of 1.54 μM was chosen as one that can optimally differentiate the set of compounds based on the range of activities observed.
(§4) As set forth in Table 13 below, AC50 values (columns A, D, G) are defined as follows: ≤0.1 μM (+++); >0.1 μM and ≤1.0 μM (++); >1.0 μM and ≤40 μM (+); >40 μM (0). Max % FOLD values (columns B, E, H) are defined as follows: ≤75% (+); >75% and ≤250% (++); >250% and ≤500% (+++). % Fold@1.54 μM values (columns C, F, J) are defined as follows: ≤75% (+); >75% and ≤250% (++); >250% and ≤50000 (+++).

[2] = target: PKR(R510Q) (Homo sapiens, UniProt P30613, R510Q); experiment: Luminescence Biochemical Assay (Kinase Glo Plus), PKR R510Q mutant; conditions: without FBP; for activation at 1.54 µM: 1.54 μM compound, read-out: AC50 LUM KGP woFBP % Fold@1.54 μM mean; for AC50: read-out: AC50 LUM KGP woFBP AC50 μM gmean; for Emax: read-out: AC50 LUM KGP woFBP MAX % FOLD mean
Chain of PKR(R510Q) (P30613 whole entry R510Q): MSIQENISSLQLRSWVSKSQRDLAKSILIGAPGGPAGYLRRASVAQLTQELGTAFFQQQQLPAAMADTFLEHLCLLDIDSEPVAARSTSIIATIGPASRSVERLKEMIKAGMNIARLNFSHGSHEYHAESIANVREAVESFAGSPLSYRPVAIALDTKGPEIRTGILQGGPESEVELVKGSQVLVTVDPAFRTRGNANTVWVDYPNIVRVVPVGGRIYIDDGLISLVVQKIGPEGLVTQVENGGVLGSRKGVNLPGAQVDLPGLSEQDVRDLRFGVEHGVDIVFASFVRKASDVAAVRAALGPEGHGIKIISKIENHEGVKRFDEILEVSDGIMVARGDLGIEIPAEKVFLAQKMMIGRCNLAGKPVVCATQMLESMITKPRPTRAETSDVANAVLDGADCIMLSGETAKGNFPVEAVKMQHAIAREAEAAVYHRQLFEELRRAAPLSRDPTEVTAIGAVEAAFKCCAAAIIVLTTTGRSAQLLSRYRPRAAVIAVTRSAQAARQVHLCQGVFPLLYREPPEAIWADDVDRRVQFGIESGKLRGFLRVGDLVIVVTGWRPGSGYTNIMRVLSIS
Procedure: as §1, §2, §3, §4

Chain of PKR(wt) (P30613 whole entry): as the sequence (P30613 whole entry R510Q) above, with Q510R counted along it

Compound	activation at 1.54 µM [1] [%]	AC50 [1] [µM]	Emax [1] [%]	activation at 1.54 µM [2] [%]	AC50 [2] [µM]	Emax [2] [%]
Cc1cc(CNC(=O)N2CC3=C(C2)CN(S(=O)(=O)c2ccc4ncsc4c2)C3)on1 [Example 21-9, 5-(1,3-Benzothiazole-6-sulfonyl)-N-[(3-methyl-1,2-oxazol-5-yl)methyl]-1H,2H,3H,4H,5H,6H-pyrrolo[3,4-c]pyrrole-2-carboxamide]	75 to 250	0.1 to 1	250 to 500	75 to 250	0.1 to 1	250 to 500
Cc1ccc(F)c(S(=O)(=O)N2CC3=C(CN(C(=O)[C@H](O)c4ccccc4)C3)C2)c1 [Example 18-16, (2R)-1-[5-(2-fluoro-5-methylbenzenesulfonyl)-1H,2H,3H,4H,5H,6H-pyrrolo[3,4-c]pyrrol-2-yl]-2-hydroxy-2-phenylethan-1-one]	75 to 250	≤ 0.1	75 to 250	250 to 50000	≤ 0.1	250 to 500
Cc1cc(CNC(=O)N2CC3=C(C2)CN(S(=O)(=O)c2ccc(OC(F)F)cc2)C3)on1 [Example 21-6, 5-[4-(Difluoromethoxy)benzenesulfonyl]-N-[(3-methyl-1,2-oxazol-5-yl)methyl]-1H,2H,3H,4H,5H,6H-pyrrolo[3,4-c]pyrrole-2-carboxamide]	250 to 50000	0.1 to 1	250 to 500	250 to 50000	0.1 to 1	250 to 500
CC(C)Oc1cccc(CNC(=O)N2CC3=C(C2)CN(S(=O)(=O)c2ccc4ncsc4c2)C3)c1 [Example 21-21, 5-(1,3-Benzothiazole-6-sulfonyl)-N-{[3-(propan-2-yloxy)phenyl]methyl}-1H,2H,3H,4H,5H,6H-pyrrolo[3,4-c]pyrrole-2-carboxamide]	75 to 250	0.1 to 1	75 to 250	75 to 250	1 to 40	75 to 250
O=C([C@H](O)c1ccccc1)N1CC2=C(C1)CN(S(=O)(=O)c1ccc(C(F)(F)F)nc1)C2 [Example 18-14, (2R)-2-hydroxy-2-phenyl-1-(5-{[6-(trifluoromethyl)pyridin-3-yl]sulfonyl}-1H,2H,3H,4H,5H,6H-pyrrolo[3,4-c]pyrrol-2-yl)ethan-1-one]	75 to 250	1 to 40	75 to 250	75 to 250	1 to 40	75 to 250
O=C(NCc1nccs1)N1CC2=C(C1)CN(S(=O)(=O)c1ccc3ncsc3c1)C2 [Example 21-28, 5-(1,3-Benzothiazole-6-sulfonyl)-N-(1,3-thiazol-2-ylmethyl)-1H,2H,3H,4H,5H,6H-pyrrolo[3,4-c]pyrrole-2-carboxamide]	75 to 250	0.1 to 1	250 to 500	75 to 250	0.1 to 1	75 to 250
O=C(C1OCCc2ccccc21)N1CC2=C(C1)CN(S(=O)(=O)c1ccc(OC(F)F)cc1)C2 (stereo not drawn) [Example 18-33, 2-[4-(Difluoromethoxy)benzenesulfonyl]-5-(3,4-dihydro-1H-2-benzopyran-1-carbonyl)-1H,2H,3H,4H,5H,6H-pyrrolo[3,4-c]pyrrole]	75 to 250	1 to 40	250 to 500	75 to 250	1 to 40	250 to 500
COc1ccc(S(=O)(=O)N2CC3=C(CN(C(=O)[C@H](O)c4ccccc4)C3)C2)cc1F [Example 18-17, (2R)-1-[5-(3-fluoro-4-methoxybenzenesulfonyl)-1H,2H,3H,4H,5H,6H-pyrrolo[3,4-c]pyrrol-2-yl]-2-hydroxy-2-phenylethan-1-one]	75 to 250	≤ 0.1	75 to 250	250 to 50000	≤ 0.1	250 to 500
O=C(NCc1ccno1)N1CC2=C(C1)CN(S(=O)(=O)c1ccc3ncsc3c1)C2 [Example 21-27, 5-(1,3-Benzothiazole-6-sulfonyl)-N-(1,2-oxazol-5-ylmethyl)-1H,2H,3H,4H,5H,6H-pyrrolo[3,4-c]pyrrole-2-carboxamide]	75 to 250	0.1 to 1	75 to 250	75 to 250	1 to 40	75 to 250
O=C([C@H](O)c1ccccc1)N1CC2=C(C1)CN(S(=O)(=O)c1ccc(F)cc1F)C2 [Example 18-18, (2R)-1-[5-(2,4-difluorobenzenesulfonyl)-1H,2H,3H,4H,5H,6H-pyrrolo[3,4-c]pyrrol-2-yl]-2-hydroxy-2-phenylethan-1-one]	75 to 250	≤ 0.1	75 to 250	250 to 50000	0.1 to 1	250 to 500
O=C([C@H](O)c1ccccc1)N1CC2=C(C1)CN(S(=O)(=O)c1cccc(C(F)(F)F)c1)C2 [Example 18-49, (2R)-2-hydroxy-2-phenyl-1-{5-[3-(trifluoromethyl)benzenesulfonyl]-1H,2H,3H,4H,5H,6H-pyrrolo[3,4-c]pyrrol-2-yl}ethan-1-one]	75 to 250	0.1 to 1	75 to 250	75 to 250	0.1 to 1	75 to 250
O=C([C@H](O)c1ccccc1)N1CC2=C(C1)CN(S(=O)(=O)c1ccc(C(F)(F)F)cc1)C2 [Example 18-11, (2R)-2-hydroxy-2-phenyl-1-{5-[4-(trifluoromethyl)benzene-sulfonyl]-1H,2H,3H,4H,5H,6H-pyrrolo[3,4-c]pyrrol-2-yl}ethan-1-one]	75 to 250	0.1 to 1	75 to 250	75 to 250	1 to 40	250 to 500
Cc1cc(CNC(=O)N2CC3=C(C2)CN(S(=O)(=O)c2ccc(OC(F)F)cc2)C3)no1 [Example 21-5, 5-[4-(Difluoromethoxy)benzenesulfonyl]-N-[(5-methyl-1,2-oxazol-3-yl)methyl]-1H,2H,3H,4H,5H,6H-pyrrolo[3,4-c]pyrrole-2-carboxamide]	250 to 50000	0.1 to 1	250 to 500	250 to 50000	0.1 to 1	250 to 500
O=C([C@H](O)c1ccccc1)N1CC2=C(C1)CN(S(=O)(=O)c1cccc(F)c1)C2 [Example 18-50, (2R)-1-[5-(3-fluorobenzenesulfonyl)-1H,2H,3H,4H,5H,6H-pyrrolo[3,4-c]pyrrol-2-yl]-2-hydroxy-2-phenylethan-1-one]	75 to 250	0.1 to 1	75 to 250	75 to 250	0.1 to 1	250 to 500
O=C(NCc1cnccn1)N1CC2=C(C1)CN(S(=O)(=O)c1ccc3ncsc3c1)C2 [Example 21-30, 5-(1,3-Benzothiazole-6-sulfonyl)-N-(pyrazin-2-ylmethyl)-1H,2H,3H,4H,5H,6H-pyrrolo[3,4-c]pyrrole-2-carboxamide]	250 to 50000	0.1 to 1	250 to 500	75 to 250	1 to 40	250 to 500
